Results reported in ChEMBL document CHEMBL2034835, “A solvent free, four-component synthesis and 1,3-dipolar cycloaddition of 4(H)-pyrans with nitrile oxides: synthesis and discovery of antimycobacterial activity of enantiomerically pure 1,2,4-oxadiazoles” (2012).
Converted amounts (≈) assume the structure as drawn.

Experiments:
Type in all cases: functional
[1] = tested on: Mycobacterium tuberculosis; assay: Antitubercular activity against isoniazid, rifampicin and ethambutol-resistant Mycobacterium tuberculosis clinical isolate after 28 days by agar dilution method; details: 672 h
[2] = tested on: Mycobacterium tuberculosis; assay: Ratio of rifampicin MIC to compound MIC for multidrug-resistant Mycobacterium tuberculosis clinical isolate
[3] = tested on: Mycobacterium tuberculosis; assay: Ratio of ethambutol MIC to compound MIC for multidrug-resistant Mycobacterium tuberculosis clinical isolate
[4] = tested on: Mycobacterium tuberculosis; assay: Ratio of ciprofloxacin MIC to compound MIC for multidrug-resistant Mycobacterium tuberculosis clinical isolate
[5] = tested on: Mycobacterium tuberculosis; assay: Ratio of isoniazid MIC to compound MIC for multidrug-resistant Mycobacterium tuberculosis clinical isolate

Row | Compound | MIC [1] [µM] | also measured
1 | Cc1ccc(/C=C2\CN([C@H](C)c3ccccc3)CC3=C2OC(N)=C(c2nc(-c4ccc(Cl)cc4)no2)C3c2ccc(C)cc2)cc1 (stereo in doubt; 9d) | 1.24 (≈ 0.778 µg/mL) | –
2 | C[C@H](c1ccccc1)N1CC2=C(OC(N)=C(c3nc(-c4ccccc4)no3)C2c2ccccc2Cl)/C(=C/c2ccccc2Cl)C1 (stereo in doubt; 9e) | 1.23 (≈ 0.779 µg/mL) | –
3 | C[C@H](c1ccccc1)N1CC2=C(OC(N)=C(c3nc(-c4ccc(Cl)cc4)no3)C2c2ccccc2Cl)/C(=C/c2ccccc2Cl)C1 (stereo in doubt; 9f) | 0.6 (≈ 0.401 µg/mL) | –
4 | C[C@H](c1ccccc1)N1CC2=C(OC(N)=C(c3nc(-c4ccccc4)no3)C2c2ccc(Cl)cc2Cl)/C(=C/c2ccc(Cl)cc2Cl)C1 (stereo in doubt; 9g) | 0.57 (≈ 0.4 µg/mL) | –
5 | C[C@H](c1ccccc1)N1CC2=C(OC(N)=C(c3nc(-c4ccc(Cl)cc4)no3)C2c2ccc(Cl)cc2Cl)/C(=C/c2ccc(Cl)cc2Cl)C1 (stereo in doubt; 9h) | 0.14 (≈ 0.103 µg/mL) | Ratio [2]: 27.1; Ratio [3]: 437; Ratio [4]: 269.5; Ratio [5]: 81.3
6 | C[C@H](c1ccccc1)N1CC2=C(OC(N)=C(c3nc(-c4ccccc4)no3)C2c2ccccc2)/C(=C/c2ccccc2)C1 (stereo in doubt; 10a) | 5.54 (≈ 3.13 µg/mL) | –
7 | C[C@H](c1ccccc1)N1CC2=C(OC(N)=C(c3nc(-c4ccc(Cl)cc4)no3)C2c2ccccc2)/C(=C/c2ccccc2)C1 (stereo in doubt; 10b) | 2.6 (≈ 1.56 µg/mL) | –
8 | CC[C@@H](CO)NCCN[C@@H](CC)CO [ETHAMBUTOL] | 61.2 (≈ 12.5 µg/mL) | –
9 | NNC(=O)c1ccncc1 [ISONIAZID] | 11.4 (≈ 1.56 µg/mL) | –
10 | CO[C@H]1/C=C/O[C@@]2(C)Oc3c(C)c(O)c4c(O)c(c(/C=N/N5CCN(C)CC5)c(O)c4c3C2=O)NC(=O)/C(C)=C\C=C\[C@H](C)[C@H](O)[C@@H](C)[C@@H](O)[C@@H](C)[C@H](OC(C)=O)[C@@H]1C [RIFAMPIN] | 3.8 (≈ 3.13 µg/mL) | –
